The source of these data is PMC10762035, “Molecular basis of human trace amine-associated receptor 1 activation” (Nature Communications, 2024).

“And” between values parts separate entries of the source, which are not always exact repeats. Equal values may be shown once. Where a name gives a salt, the structure may show the parent alone.

For experiment [1], the target named is T1, hTA1 (Homo sapiens, UniProt Q96RJ0).
T1 construct: expressed in transfected cells; host or cells: HEK293T
T1 sequence (Q96RJ0 1-339): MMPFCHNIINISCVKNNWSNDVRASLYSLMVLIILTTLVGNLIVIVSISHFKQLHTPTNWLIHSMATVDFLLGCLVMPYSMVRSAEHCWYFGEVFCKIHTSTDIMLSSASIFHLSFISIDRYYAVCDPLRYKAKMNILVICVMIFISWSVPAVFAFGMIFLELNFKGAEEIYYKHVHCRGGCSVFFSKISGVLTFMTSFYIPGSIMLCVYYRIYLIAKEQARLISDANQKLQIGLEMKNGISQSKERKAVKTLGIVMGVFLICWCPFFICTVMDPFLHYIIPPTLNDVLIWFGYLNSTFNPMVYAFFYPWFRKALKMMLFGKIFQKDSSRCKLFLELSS
Nature of the experiment: GloSensor cAMP accumulation assay, concentration response, wild-type hTA1 in transfected HEK293T cells.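 Further: luminescence read after 30 min compound exposure at room temperature in cells preloaded with D-Luciferin, reflecting Gs-driven cAMP rise, efficacy scaled to the maximal β-PEA response.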 Format: cell-based. As to conditions: log[Compound], replicate wells. (cAMP levels reflect the balance of adenylyl cyclase and phosphodiesterase activity.)

Experiment [2] has as its target T1, hTA1. Put plainly: Screen of 89 aminergic compounds at 10 µM, cAMP accumulation in HEK293T cells.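 On all read-outs here: HEK293T cells co-transfected with hTA1 and GloSensor cAMP reporter, cAMP accumulation detected by luminescence.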 The format is cell-based. Conditions: for increase of signal over DMSO-treated controls (hTA1 activation): 10 µM of compound, HEK293T, threshold log2-fold change of 2; for Luminescence for Screening Data: quadruplicate values, screen at 10 µM.

As for `CCCN1C[C@H](CSC)C[C@@H]2c3cccc4[nH]cc(c34)C[C@H]21` [pergolide], the “Normalized Luminescence Counts for WT hTA1” value on hTA1 [1] (M = -5) was 13.9149 and 11.9176 and 12.507; on hTA1 [1] (M = -5.522), 9.888 and 9.789 and 7.596; at hTA1 [1] (M = -6), 6.6135 and 5.238 and 5.4348; at hTA1 [1] (M = -6.522) it was 5.599 and 3.8632 and 6.122; on hTA1 [1] (M = -7) it was 3.11 and 1.735 and 0.9819; on hTA1 [1] (M = -7.522), 1.047 and 0.5563 and 0.1634. Moreover, the “Normalized Luminescence Counts for WT hTA1” value on hTA1 [1] (M = -8) is 0.7855 and 0.1634 and 0.8182; on hTA1 [1] (M = -8.522), -0.0658 and 0.09791 and -0.0003118; on hTA1 [1] (M = -9), -0.426 and -0.3932 and -0.5242; at hTA1 [1] (M = -9.522), -0.8516 and -0.0003118 and -0.6224; on hTA1 [1] (M = -10) it was -0.3277 and 0.03243 and -0.5897; on hTA1 [1] (M = -10.522), -0.7206 and -0.2622 and 0.3598. In addition, the “Normalized Luminescence Counts for WT hTA1” value at hTA1 [1] (M = -11) was 0.3926 and 0.1634 and 0.4253; on hTA1 [1] (M = -11.522) it was 0.4253 and 1.047 and -0.2622; on hTA1 [1] (M = -12), 0.3271 and -0.09854 and 0.6218; on hTA1 [1] (M = -12.522), 0.5236 and 0.9492 and 0.2616. Further, the “increase of signal over DMSO-treated controls (hTA1 activation)” value (“increase of signal” for short) at hTA1 [2] is no less than 4 fold.

`C[C@H](N)Cn1ccc2cc(F)c(Cl)cc21` [Ro600175]: the “Normalized Luminescence Counts for WT hTA1” value on hTA1 [1] (M = -5) was 52.641 and 46.7523 and 44.37 and 49.7206 and 44.9424 and 49.1048; on hTA1 [1] (M = -5.522), 20.1192 and 21.0025 and 20.1995 and 33.6184 and 30.3798 and 33.3903; at hTA1 [1] (M = -6) it was 10.3493 and 9.439 and 10.7776 and 14.1863 and 14.9846 and 14.3574; on hTA1 [1] (M = -6.522), 3.39 and 1.971 and 3.3096 and 6.785 and 7.013 and 6.8993; at hTA1 [1] (M = -7), 0.6865 and 0.9274 and 0.7668 and 2.03 and 1.973 and 1.7904; on hTA1 [1] (M = -7.522) it was -0.2504 and 0.2582 and -0.2236 and 0.6842 and 0.6044 and 0.3991. The “Normalized Luminescence Counts for WT hTA1” value on hTA1 [1] (M = -8) is 0.5258 and 0.5794 and 1.275 and 0.4333 and 0.3763 and 0.3649; at hTA1 [1] (M = -8.522), 0.4991 and -0.1166 and 0.392 and 0.03421 and 0.3649 and 0.2509; on hTA1 [1] (M = -9) it was 0.01728 and 0.7935 and -0.1969 and 0.1026 and 0.3877 and 0.2737; at hTA1 [1] (M = -9.522), 0.07081 and -0.08979 and -0.1166 and -0.1482 and -0.114 and 0.07983; at hTA1 [1] (M = -10), 0.1243 and -0.009489 and 0.4188 and -0.1825 and -0.0114 and -0.03421; at hTA1 [1] (M = -10.522), -0.06302 and -0.3842 and 0.1779 and -0.2053 and 0 and -0.05702. In addition, the “Normalized Luminescence Counts for WT hTA1” value at hTA1 [1] (M = -11) is 0.6329 and 0.3117 and 0.7132 and -0.06842 and 0.4447 and 0.2509; at hTA1 [1] (M = -11.522) it was 0.4188 and 0.7668 and 0.8738 and 0.4676 and 0.2509 and 0.707; on hTA1 [1] (M = -12), 0.5258 and 0.5526 and 1.302 and -0.114 and 0.2737 and 0.1368; on hTA1 [1] (M = -12.522), 0.2046 and 0.1779 and 0.2849 and 0.2623 and 0.4219 and 0.2395. Moreover, the “increase of signal” value at hTA1 [2] is reported as no less than 4 fold.

Consider `Cc1cc(C(C)(C)C)c(O)c(C)c1CC1=NCCN1` [oxymetazoline], for which the “Normalized Luminescence Counts for WT hTA1” value on hTA1 [1] (M = -5) was 35.3607 and 39.1587 and 34.0837 and 3.969 and 2.152 and 2.824; at hTA1 [1] (M = -5.522) it was 27.6664 and 21.0198 and 25.8983 and 1.56 and 0.6511 and 0.8091; on hTA1 [1] (M = -6), 14.0131 and 12.0159 and 14.9299 and -0.5736 and -1.127 and -1.4822; on hTA1 [1] (M = -6.522), 3.994 and 5.664 and 5.697 and -1.838 and -1.68 and -1.798; on hTA1 [1] (M = -7), 1.539 and 1.637 and 2.128 and -1.4822 and -2.075 and -1.719; at hTA1 [1] (M = -7.522), -0.1968 and -0.426 and -0.09854 and -2.035 and -2.2723 and -2.391. Besides, the “Normalized Luminescence Counts for WT hTA1” value is 0.03243 and -0.0003118 and 0.1634 and -1.166 and -0.9291 and -1.403 at hTA1 [1] (M = -8); -0.7206 and -0.5569 and -0.1313 and -1.364 and -1.522 and -1.956 on hTA1 [1] (M = -8.522); -0.7534 and -0.7861 and -0.0003118 and -1.403 and -1.798 and -2.035 on hTA1 [1] (M = -9); -0.7206 and -0.4914 and -0.5569 and -1.4822 and -1.64 and -1.838 on hTA1 [1] (M = -9.522); -1.31 and -1.0153 and -0.5242 and -2.075 and -1.4427 and -2.3118 at hTA1 [1] (M = -10); -0.1313 and -0.7206 and -0.7861 and -2.075 and -1.4822 and -2.43 at hTA1 [1] (M = -10.522). The “Normalized Luminescence Counts for WT hTA1” value is -0.03305 and -0.6224 and 0.03243 and -1.522 and -0.4551 and -2.114 on hTA1 [1] (M = -11); -0.4914 and -0.4587 and -0.5242 and -1.403 and -1.048 and -2.075 at hTA1 [1] (M = -11.522); -0.5897 and -0.6224 and -0.3932 and -2.035 and -1.4427 and -1.956 at hTA1 [1] (M = -12); 0.09791 and 0.06517 and -0.7861 and -1.64 and -1.127 and -0.8106 at hTA1 [1] (M = -12.522). For the same compound, the “increase of signal” value at hTA1 [2] was no less than 4 fold.

Consider `CCN(CC)C(=O)[C@@H]1C=C2c3cccc4[nH]cc(c34)C[C@H]2N(C)C1` [LSD], for which the “Normalized Luminescence Counts for WT hTA1” value at hTA1 [1] (M = -5) is 23.2463 and 21.0198 and 23.6719 and 20.4035 and 14.0827 and 19.0998; on hTA1 [1] (M = -5.522), 8.12 and 8.709 and 6.057 and 5.51 and 6.34 and 6.182; at hTA1 [1] (M = -6), 3.405 and 1.833 (2×) and 1.7572 and 2.35 and 2.5473; on hTA1 [1] (M = -6.522), 0.7855 and 1.3421 and 1.375 and 0.5325 and 0.8881 and 0.6116; at hTA1 [1] (M = -7), -0.0003118 and 0.7527 and 0.5563 and 0.256 and -0.2575 and 0.2165; at hTA1 [1] (M = -7.522), -0.164 and -0.426 and 0.2944 and -0.4946 (2×) and -0.09953. Also, the “Normalized Luminescence Counts for WT hTA1” value at hTA1 [1] (M = -8) was 0.7855 and 0.6873 and 0.03243 and 0.1375 and 0.6116 and -0.2575; at hTA1 [1] (M = -8.522) it was -0.2295 and 0.4253 and 0.09791 and 0.05849 and -0.2971 and 0.6511; on hTA1 [1] (M = -9), -0.8516 and -0.1968 and 0.1634 and 0.493 and -0.09953 and 0.2955; on hTA1 [1] (M = -9.522) it was -0.295 and -0.3605 and -0.426 and -0.1785 and -0.3761 and -0.06003; at hTA1 [1] (M = -10), -0.09854 and 0.2289 and -0.3605 and -0.4946 and -0.5736 and -0.6131; at hTA1 [1] (M = -10.522), -0.4587 (2×) and -0.1313 and -0.218 and -1.245 and 0.01898. Besides, the “Normalized Luminescence Counts for WT hTA1” value on hTA1 [1] (M = -11) is -0.09854 and 0.3598 and 0.6873 and -0.1785 and -0.09953 and 1.007; on hTA1 [1] (M = -11.522), 0.2289 and 1.08 and 0.3926 and 1.086 and 1.046 and -0.2971; at hTA1 [1] (M = -12), -0.4587 and 0.1634 and 0.4253 and 0.7696 and -0.2575 and 1.836; at hTA1 [1] (M = -12.522), 1.735 and 0.5236 and 0.2616 and 0.05849 and -0.218 and 0.3745. On hTA1 [2], the “increase of signal” value is listed as no less than 4 fold.

Consider `CN1CCN(C2=Nc3ccccc3Oc3ccc(Cl)cc32)CC1.O=C(O)CCC(=O)O` [Loxapine succinate salt], for which, on hTA1 [2], the “Luminescence for Screening Data” value was 5.2 and 3.9 and 5.6.

As for `CN1C[C@H](C(=O)N[C@]2(C)O[C@@]3(O)[C@@H]4CCCN4C(=O)[C@H](Cc4ccccc4)N3C2=O)C=C2c3cccc4c3c(cn4C)C[C@H]21.O=C(O)/C=C\C(=O)O` [Methylergotamine maleate], the “Luminescence for Screening Data” value on hTA1 [2] was 42.5 and 31.9 and 34.9 and 38.8.

Take `CN1CC2c3ccccc3Oc3ccc(Cl)cc3C2C1` (centres unmarked) [Asenapine maleate]: the “Luminescence for Screening Data” value at hTA1 [2] was 139.1 and 129.2 and 126.2 and 110.4.

Take `COc1ccccc1N1CCN(CCCCN2C(=O)c3ccccc3C2=O)CC1` [NAN190]: the “Luminescence for Screening Data” value on hTA1 [2] is 6.8 and 8.1 and 6.1 and 6.2.

Regarding `CCCCN1CCC(COC(=O)c2cc(Cl)c(N)c3c2OCCO3)CC1` [SB204070], the “Luminescence for Screening Data” value on hTA1 [2] was 5.4 and 6 and 6.4.

For `COC(=O)[C@H]1[C@H]2C[C@@H]3c4[nH]c5cc(OC)ccc5c4CCN3C[C@H]2C[C@@H](OC(=O)c2cc(OC)c(OC)c(OC)c2)[C@@H]1OC` [Reserpine], at hTA1 [2], the “Luminescence for Screening Data” value is 10.3 and 8.2 and 7.3 and 7.1.

On to `O=S1(=O)c2cccc3cccc(c23)N1CCCN1CCN(c2ccc(F)cc2)CC1` [Fananserin], for which the “Luminescence for Screening Data” value at hTA1 [2] is 4.9 and 5 and 4.3 and 5.2.

In the case of `O=C(CCCN1CCC(O)(c2ccc(Cl)cc2)CC1)c1ccc(F)cc1` [Haloperidol], at hTA1 [2], the “Luminescence for Screening Data” value was 7.4 and 8.8 and 6.8 and 6.9.

Consider `CNCCCN1c2ccccc2CCc2ccccc21` [Desipramine], for which the “Luminescence for Screening Data” value at hTA1 [2] is 6 and 6.2 and 5.6 and 6.1.
